Measured values: patent publication US20150252048A1, “SUBSTITUTED N-(3-PYRIMIDIN-4-YL)PHENYL)ACRYLAMIDE ANALOGS AS TYROSINE RECEPTOR KINASE BTK INHIBITORS” (UNIVERSITY OF UTAH RESEARCH FOUNDATION, priority 2012, published 2015)

Legend:
Assay type in all cases: biochemical
[1] = biological target: BTK (Homo sapiens, UniProt Q06187); test: BTK kinase assay: time resolved-FRET (HTRF) assay; set-up: recombinant full-length human BTK kinase with a (His)6 tag; (His)6; purchased Invitrogen Corporation, Carlsbad, Calif; conditions: 10 nM BTK, 60 μM ATP, 1 μM substrate
Method: Activity of compounds was routinely confirmed using a secondary assay as described herein. The secondary assay was a time resolved-FRET kinase assay. Test compound are diluted to desired concentrations in kinase reaction buffer and briefly incubated with BTK kinase (as described above; Invitrogen). The reaction is initiated by the addition of ATP and enzyme substrate, HTRF® KinEASE™-TK Substrate-biotin (Cisbio US, Bedford, Mass.). The composition of the reaction (10 μl) was: 1% v/v DMSO, 10 nM BTK, 60 μM ATP, and 1 μM substrate. After incubation at room temperature for 60 min, the enzyme reaction is stopped by EDTA-containing buffer, which also contains europium-labeled (Eu^3+-Cryptate) anti-phosphotyrosine antibody (Cisbio) and Streptavidin-XL665 (Cisbio). The europium-labeled antibody generates a time-resolved FRET signal with the Stepavidin-XL665, which binds to the biotinylated TK substrate through the streptavidin conjugate when the substrate is phosphorylated. After one hour incubation at room temperature, fluoresence was measured with excitation of 320 nm and dual emission of 615 and 665 nm on an EnVision microplate reader. Signal is expressed in terms of a TR-FRET ratio (665:615).
IC50 values are determined using GraphPad Prism 5 software. The data were entered as an X-Y plot into the software as percent inhibition for each concentration of the drug. The concentration values of the drug were log transformed and the nonlinear regression was carried out using the “sigmoidal dose-response (variable slope)” option within the GraphPad software to model the data and calculate IC50 values. The IC50 values reported are the concentration of drug at which 50% inhibition was reached.
Activity (IC50) was determined in the BTK assays describe herein below, i.e. either the ADP generation assay and/or the time-resolved FRET assay, and the data are shown in Table III. The compound number corresponds to the compound numbers used in Table I. In the table below, “ADP Assay” refers to the assay which measures production of ADP resulting from use of ATP by the kinase; and “HTRF Assay” refers to the time resolved-FRET kinase assay described in the examples. Multiple values in a given column indicate the results of more than one assay for the given compound. Representative data of the type used to determine the IC50 values for the ADP assay in Table III are shown in FIG. 8 for compounds 3, 4, and 5.

[2] = biological target: T1, JAK3 (Homo sapiens, UniProt P52333); test: Specific kinase IC50 assay; conditions: 1 μM ATP, 10-dose, duplicate
T1 sequence (P52333 1-1124): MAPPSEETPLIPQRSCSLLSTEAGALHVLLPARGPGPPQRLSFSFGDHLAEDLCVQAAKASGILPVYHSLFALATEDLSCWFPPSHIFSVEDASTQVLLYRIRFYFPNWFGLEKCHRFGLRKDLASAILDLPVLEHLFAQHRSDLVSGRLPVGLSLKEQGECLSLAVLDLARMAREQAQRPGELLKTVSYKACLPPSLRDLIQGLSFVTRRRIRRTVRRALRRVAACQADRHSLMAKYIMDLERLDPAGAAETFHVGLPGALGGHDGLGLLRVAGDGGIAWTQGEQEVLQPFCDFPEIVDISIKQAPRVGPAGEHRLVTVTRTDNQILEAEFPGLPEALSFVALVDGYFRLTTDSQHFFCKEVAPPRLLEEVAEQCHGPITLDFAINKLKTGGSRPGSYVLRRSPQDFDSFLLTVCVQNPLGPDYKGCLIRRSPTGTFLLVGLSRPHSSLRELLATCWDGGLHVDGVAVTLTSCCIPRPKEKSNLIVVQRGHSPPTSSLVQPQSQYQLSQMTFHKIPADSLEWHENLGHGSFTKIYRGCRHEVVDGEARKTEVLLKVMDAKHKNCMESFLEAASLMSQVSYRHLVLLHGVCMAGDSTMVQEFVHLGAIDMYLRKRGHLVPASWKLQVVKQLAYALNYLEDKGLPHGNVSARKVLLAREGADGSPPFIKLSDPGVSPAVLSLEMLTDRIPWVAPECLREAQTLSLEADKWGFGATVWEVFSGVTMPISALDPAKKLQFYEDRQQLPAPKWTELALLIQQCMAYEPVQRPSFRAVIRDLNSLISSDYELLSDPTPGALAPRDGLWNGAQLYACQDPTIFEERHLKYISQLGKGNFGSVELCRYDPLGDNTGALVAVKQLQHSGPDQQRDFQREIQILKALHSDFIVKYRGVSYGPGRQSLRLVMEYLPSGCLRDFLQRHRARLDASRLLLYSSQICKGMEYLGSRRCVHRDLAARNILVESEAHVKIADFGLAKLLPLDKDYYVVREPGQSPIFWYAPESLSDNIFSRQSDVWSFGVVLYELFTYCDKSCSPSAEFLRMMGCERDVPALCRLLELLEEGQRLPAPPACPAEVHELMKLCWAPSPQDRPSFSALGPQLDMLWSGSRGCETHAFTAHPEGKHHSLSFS
Method: (§1) The assays were carried out in the presence of 1 μM ATP and were conducted in a 10-dose format in duplicate with three-fold serial dilutions starting at 10 μM.

[3] = biological target: T2, TEC (Homo sapiens, UniProt P42680); test: Specific kinase IC50 assay; conditions: 1 μM ATP, 10-dose, duplicate
T2 sequence (P42680 1-631): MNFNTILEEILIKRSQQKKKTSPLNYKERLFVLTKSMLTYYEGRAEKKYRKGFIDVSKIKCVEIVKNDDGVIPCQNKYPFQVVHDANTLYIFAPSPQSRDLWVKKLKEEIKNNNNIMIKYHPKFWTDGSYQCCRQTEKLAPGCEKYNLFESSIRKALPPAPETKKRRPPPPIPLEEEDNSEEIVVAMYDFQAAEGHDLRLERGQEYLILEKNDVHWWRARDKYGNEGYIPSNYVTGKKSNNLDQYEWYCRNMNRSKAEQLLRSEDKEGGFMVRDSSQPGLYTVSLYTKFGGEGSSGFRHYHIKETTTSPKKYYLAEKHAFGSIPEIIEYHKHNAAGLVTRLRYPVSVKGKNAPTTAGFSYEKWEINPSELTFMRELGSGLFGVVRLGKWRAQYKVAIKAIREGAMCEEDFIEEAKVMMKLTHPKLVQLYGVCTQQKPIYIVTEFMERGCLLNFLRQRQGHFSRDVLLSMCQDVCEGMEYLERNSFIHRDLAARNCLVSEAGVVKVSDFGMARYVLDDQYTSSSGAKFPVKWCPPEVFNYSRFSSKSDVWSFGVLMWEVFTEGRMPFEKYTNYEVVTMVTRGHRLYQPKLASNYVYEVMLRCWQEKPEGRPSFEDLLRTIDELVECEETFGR
Method: as §1

Chain of BTK (Q06187 whole entry): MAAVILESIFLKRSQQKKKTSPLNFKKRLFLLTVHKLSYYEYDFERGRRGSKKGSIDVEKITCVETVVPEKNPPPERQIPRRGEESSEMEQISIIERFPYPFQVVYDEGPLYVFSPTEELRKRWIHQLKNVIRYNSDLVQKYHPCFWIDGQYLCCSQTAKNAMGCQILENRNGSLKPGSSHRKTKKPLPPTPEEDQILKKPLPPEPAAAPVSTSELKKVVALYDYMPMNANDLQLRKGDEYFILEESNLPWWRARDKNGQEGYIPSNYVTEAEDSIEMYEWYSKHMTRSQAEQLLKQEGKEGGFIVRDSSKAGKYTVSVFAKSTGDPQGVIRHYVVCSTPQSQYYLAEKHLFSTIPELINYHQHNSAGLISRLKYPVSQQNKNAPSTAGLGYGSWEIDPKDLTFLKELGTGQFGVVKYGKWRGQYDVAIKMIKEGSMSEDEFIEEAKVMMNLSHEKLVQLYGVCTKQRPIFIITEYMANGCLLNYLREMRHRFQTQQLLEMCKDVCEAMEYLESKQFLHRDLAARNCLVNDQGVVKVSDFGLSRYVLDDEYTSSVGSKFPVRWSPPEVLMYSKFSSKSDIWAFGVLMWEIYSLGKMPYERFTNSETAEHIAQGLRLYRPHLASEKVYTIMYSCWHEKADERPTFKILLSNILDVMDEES

C=CC(=O)Nc1cccc(-c2nc(Nc3cccc(N4CCOCC4)c3)nc3[nH]ncc23)c1 [Compound 3, N-(3-(6-((3-morpholinophenyl)amino)-1H-pyrazolo[3,4-d]pyrimidin-4-yl)phenyl)acrylamide]
IC50 [1]: 0.008 µM | IC50 [2]: 0.0666 µM | IC50 [3]: 0.0502 µM
